Measured values: patent publication US10676429B2, “Sulfamoyl-arylamides and the use thereof as medicaments for the treatment of hepatitis B” (priority 2012, dated 2020)

Columns and labels:
HBV [1] = experiment: Anti-HBV activity in stable transfected HepG2.2.15 cell line (HBV DNA from secreted virions, realtime PCR); format: cell-based; settings: Hepatitis B virus, HepG2.2.15, 144 h
HBV [2] = experiment: Anti-HBV activity in HepG2.117 cell line (Tet-off, intracellular HBV DNA, realtime PCR); format: cell-based; settings: Hepatitis B virus, HepG2.117, 72 h
HepG2 cells = experiment: Cytotoxicity in HepG2 cells, 4 days, Resazurin assay; settings: read-out: HepG2 4 days CC50; HepG2 cells, 4 days, Resazurin
[3] = as above; settings: human, HepG2 cells
[4] = HepG2.2.15 cells, 6 days of treatment, secreted virion HBV DNA, read-out: HepG2 2.15 EC50
[5] = HepG2.117 cells, 3 days of treatment, intracellular HBV DNA, read-out: HepG2 117 EC50

| SMILES | EC50 (HBV [1]; [4]) [µM] | EC50 (HBV [2]; [5]) [µM] | CC50 (HepG2 cells) [µM] | CC50 at 4 days [3] [µM] | EC50 (HBV [1]; read-out: HepG2 2.15 EC50 (μM)) [µM] | EC50 (HBV [2]; read-out: HepG2 117 EC50 (μM)) [µM] |
| --- | --- | --- | --- | --- | --- | --- |
| Cc1c(NC(=O)c2cccc(S(=O)(=O)N[C@H]3CCOC3)c2)ccc(F)c1F [Compound 118] | 3.63 | 1.91 | > 25 | – | – | – |
| Cc1c(F)ccc(NC(=O)c2cccc(S(=O)(=O)N[C@H]3CCOC3)c2)c1F [Compound 104] | 0.29 | 0.78 | > 25 | – | – | – |
| O=C(Nc1ccc(F)cc1)c1cccc(S(=O)(=O)N2CCOCC2)c1 [Compound 41] | 8.49 | 11 | > 100 | – | – | – |
| CCC(CC)NS(=O)(=O)c1cccc(C(=O)Nc2ccc(F)cc2)c1 [Compound 10] | 0.75 | 3.63 | 40.3 | – | – | – |
| O=C(Nc1ccc(F)cc1)c1cccc(S(=O)(=O)NC2CCCCC2)c1 [Compound 6] | – | 0.58 | > 25 | – | – | – |
| Cc1cc(NC(=O)c2cccc(S(=O)(=O)N[C@@H](C)C(F)(F)F)c2)ccc1F [Compound 226] | 0.27 | 1.9 | – | > 25 | – | – |
| CC(C)NS(=O)(=O)c1cccc(C(=O)Nc2ccc(F)c(F)c2)c1 [Compound 88] | 0.21 | 0.4 | – | > 25 | – | – |
| Cc1cc(NC(=O)c2cccc(S(=O)(=O)NC(C)c3cccnc3)c2)ccc1F (centres unmarked) [Compound 162] | 0.17 | 1.26 | – | > 25 | – | – |
| O=C(Nc1ccc(F)c(C(F)F)c1)c1cccc(S(=O)(=O)N[C@H]2CCOC2)c1F [Compound 220] | 0.11 | 0.09 | – | > 25 | – | – |
| O=C(Nc1ccccc1)c1ccnc(S(=O)(=O)NC2CCCCC2)c1 [Compound 66] | 4.27 | 14.5 | – | > 100 | – | – |
| N#Cc1ccc(NC(=O)c2cccc(S(=O)(=O)NC3CCCC3)c2)cc1 [Compound 80] | 8.4 | 17.9 | – | > 25 | – | – |
| Cc1cc(NC(=O)c2cc(F)cc(S(=O)(=O)NC(C)C)c2)ccc1F [Compound 240] | 0.4 | 2.86 | – | > 25 | – | – |
| Cc1cc(NC(=O)c2cccc(S(=O)(=O)NC(C)C)c2)cc(F)c1F [Compound 99] | 0.09 | 0.46 | – | > 25 | – | – |
| CC[C@@H](C)NS(=O)(=O)c1cccc(C(=O)Nc2ccc(F)c(C)c2)c1 [Compound 98] | 0.1 | 0.31 | – | > 25 | – | – |
| CC1(NS(=O)(=O)c2cccc(C(=O)Nc3ccc(F)c(O)c3)c2)COC1 [Compound 108] | 7.2 | 9.27 | – | > 25 | – | – |
| Cc1cc(NC(=O)c2cccc(S(=O)(=O)NC(C)C3CCN(C)CC3)c2)ccc1F (centres unmarked) [Compound 164] | 3.71 | 0.97 | – | > 25 | – | – |
| Cc1cc(NC(=O)c2cccc(S(=O)(=O)NC(C)CN3CCN(C)CC3)c2)ccc1F (centres unmarked) [Compound 116] | 1.94 | 0.9 | – | > 25 | – | – |
| Cc1cc(NC(=O)c2cccc(S(=O)(=O)NC3(C(F)(F)F)CC3)c2)ccc1F [Compound 183] | 0.08 | 0.84 | – | > 25 | – | – |
| Cc1cc(NC(=O)c2cccc(S(=O)(=O)NC(C)Cc3ccncc3)c2)ccc1F (centres unmarked) [Compound 224] | 0.16 | 0.76 | – | > 25 | – | – |
| Cc1cc(NC(=O)c2cccc(S(=O)(=O)NC(C)CCc3ccccc3)c2)ccc1F (centres unmarked) [Compound 153] | 0.22 | 0.25 | – | > 25 | – | – |
| Cc1cc(NC(=O)c2cccc(S(=O)(=O)NC3CCCN(C(=O)OC(C)(C)C)C3)c2)ccc1F (centres unmarked) [Compound 155] | 0.36 | 0.81 | – | > 25 | – | – |
| O=C(Nc1ccc(F)cc1)c1cc(S(=O)(=O)N2CCC3(CC2)OCCO3)ccc1F [Compound 52] | 1.94 | 2.44 | – | > 50 | – | – |
| O=C(Nc1ccc(C(F)(F)F)cc1)c1cc(S(=O)(=O)NC2CCCC2)ccc1F [Compound 50] | 45.9 | 15.8 | – | 11.3 | – | – |
| COc1ccc(NC(=O)c2cccc(S(=O)(=O)NC(C)C)c2)cc1F [Compound 114] | 1.35 | 3.15 | – | > 25 | – | – |
| Cc1cc(NC(=O)c2cccc(S(=O)(=O)N[C@@H]3CCc4ccccc4[C@@H]3O)c2)ccc1F [Compound 137] | 0.66 | 0.92 | – | 23.7 | – | – |
| Cc1cc(NC(=O)c2cccc(S(=O)(=O)NC3CCN(C(=O)OC(C)(C)C)C3)c2)ccc1F (centres unmarked) [Compound 156] | 0.19 | 0.21 | – | > 25 | – | – |
| O=C(Nc1ccc(F)cc1)c1cc(S(=O)(=O)NC2CCCC2)ccc1F [Compound 53] | 0.36 | 0.44 | – | > 50 | – | – |

| SMILES | EC50 (HBV [1]; [4]) [µM] | EC50 (HBV [2]; [5]) [µM] | CC50 (HepG2 cells) [µM] | CC50 at 4 days [3] [µM] | EC50 (HBV [1]; read-out: HepG2 2.15 EC50 (μM)) [µM] | EC50 (HBV [2]; read-out: HepG2 117 EC50 (μM)) [µM] |
| --- | --- | --- | --- | --- | --- | --- |
| CC[C@H](C)NS(=O)(=O)c1cccc(C(=O)Nc2ccc(F)cc2)c1 [Compound 71] | 0.75 | 8.63 | – | > 25 | – | – |
| O=C(Nc1ccc(F)cc1)c1ccc(S(=O)(=O)N2CCCCC2)o1 [Compound 57] | 15.5 | 12.7 | – | 52.1 | – | – |
| Cc1cc(NC(=O)c2cccc(S(=O)(=O)NC(C)Cc3ccccn3)c2)ccc1F (centres unmarked) [Compound 120] | 0.53 | 0.51 | – | > 25 | – | – |
| COC(=O)N1CC(C)(NS(=O)(=O)c2cccc(C(=O)Nc3ccc(F)c(C)c3)c2)C1 [Compound 157] | 0.13 | 0.23 | – | > 25 | – | – |
| CC1(NS(=O)(=O)c2ccc(Cl)c(C(=O)Nc3ccc(F)c(F)c3)c2)COC1 [Compound 234] | 0.72 | 0.34 | – | > 25 | – | – |
| COc1ccc(NC(=O)c2cccc(S(=O)(=O)N[C@H]3CCOC3)c2)cc1C [Compound 107] | 7.82 | 13.8 | – | > 25 | – | – |
| Cc1cc(NC(=O)c2cccc(S(=O)(=O)N[C@H]3C[C@@H](O)C3)c2)ccc1F [Compound 184b] | 0.3 | 0.33 | – | > 25 | – | – |
| Cc1cc(NC(=O)c2cccc(S(=O)(=O)N[C@H]3CCOC3)c2)ccc1F [Compound 72] | 0.12 | 0.37 | – | > 25 | – | – |
| CCC1(NS(=O)(=O)c2cccc(C(=O)Nc3ccc(F)cc3)c2)COC1 [Compound 89] | 0.54 | 0.72 | – | > 25 | – | – |
| CC(C)NS(=O)(=O)c1cccc(C(=O)Nc2ccc(F)c(C(F)F)c2)c1 [Compound 96] | 0.1 | 0.29 | – | > 25 | – | – |
| C#Cc1cc(NC(=O)c2cccc(S(=O)(=O)NC(C)C)c2)ccc1F [Compound 91] | 0.53 | 0.77 | – | > 25 | – | – |
| Cc1cc(NC(=O)c2cccc(S(=O)(=O)N[C@H]3CCCC[C@@H]3O)c2)ccc1F [Compound 131] | 2.63 | 1.74 | – | > 25 | – | – |
| CC1(NS(=O)(=O)c2cccc(C(=O)Nc3ccc(F)c(CF)c3)c2)COC1 [Compound 127] | 0.23 | 0.58 | – | > 25 | – | – |
| CC1(NS(=O)(=O)c2cc(Cl)cc(C(=O)Nc3ccc(F)c(C(F)F)c3)c2F)COC1 [Compound 217] | 0.2 | 0.6 | – | > 25 | – | – |
| CCC(C)(C)NS(=O)(=O)c1cccc(C(=O)Nc2ccc(F)c(C)c2)c1 [Compound 86] | 0.14 | 0.11 | – | > 25 | – | – |
| Cc1cc(NC(=O)c2cccc(S(=O)(=O)N[C@@H](C)C(C)C)c2)ccc1F [Compound 151] | 0.66 | 2.74 | – | > 25 | – | – |
| Cc1cc(NC(=O)c2cccc(S(=O)(=O)N[C@H]3C[C@H](O)C3)c2)ccc1F [Compound 184a] | 0.31 | 0.77 | – | > 25 | – | – |
| Cc1cc(NC(=O)c2cccc(S(=O)(=O)NC3CCC(O)C3)c2)ccc1F (centres unmarked) [Compound 145] | 0.22 | 0.27 | – | > 25 | – | – |
| O=C(Nc1ccccc1)c1ccc(S(=O)(=O)N2CCCCC2)o1 [Compound 58] | 14.6 | 19.9 | – | 62.5 | – | – |
| Cc1cc(NC(=O)c2cccc(S(=O)(=O)N[C@H](C)C(F)(F)F)c2)ccc1F [Compound 225] | 0.09 | 1.34 | – | > 25 | – | – |
| O=C(Nc1ccc(F)cc1)c1cc(S(=O)(=O)N2CCCCC2)ccc1Cl [Compound 54] | 1.63 | 1.55 | – | > 50 | – | – |
| Cc1cc(NC(=O)c2cccc(S(=O)(=O)NC3CCC(F)(F)CC3)c2)ccc1F [Compound 149] | 0.22 | 0.73 | – | 20.8 | – | – |
| CN(C)S(=O)(=O)c1ccc(F)c(C(=O)Nc2ccccc2)c1 [Compound 49] | 13.4 | 9.15 | – | > 100 | – | – |
| Cc1cc(NC(=O)c2cccc(S(=O)(=O)NC3CCN(C)C3=O)c2)ccc1F (centres unmarked) [Compound 181] | 2.59 | 2.04 | – | > 25 | – | – |
| O=C(Nc1ccc(F)cc1)c1cccc(S(=O)(=O)NC(=O)C2CCCCC2)c1 [Compound 56] | 1.64 | 5.45 | – | > 100 | – | – |
| Cc1cc(NC(=O)c2cccc(S(=O)(=O)N[C@H](C)[C@@H](O)c3ccccc3)c2)ccc1F [Compound 144] | 0.13 | 0.24 | – | > 25 | – | – |
| Cc1cc(NC(=O)c2cccc(S(=O)(=O)NC(C)Cc3ccccc3)c2)ccc1F (centres unmarked) [Compound 169] | – | – | – | 14.9 | 0.24 | 1.41 |
